Data taken from patent US4939159A, “Azaindole derivatives useful as cholesterol biosynthesis inhibitors” (Sandoz Pharm. Corp., priority 1989, dated 1990).

System: 3β-hydroxysterol synthesis
Experiment: Test B. In Vivo Cholesterol Biosynthesis Inhibition Test
Conditions: Rattus norvegicus, po; rats, orally administered; read-out: ED50 (dose producing 50% inhibition of 3β-hydroxysterol synthesis)
Procedure: Test B. In Yivo Cholesterol Biosynthesis Inhibition Test:
In this test the rats are orally administered the test substance (compound of Formula I) at a dose of 0.025-200 mg/kg body weight. The obtained ED50 the dose of the test substance observed or calculated to produce a 50% inhibition of 3β -hydroxysterol synthesis.

Q: With `CC[C@H](C)C(=O)O[C@H]1C[C@@H](C)C=C2C=C[C@H](C)[C@H](CC[C@@H]3C[C@@H](O)CC(=O)O3)[C@H]21` [Mevinolin] as the compound, how does the ED50 read?
A: 0.38 mg/kg
